Read-outs that look alike come from different tables or passages of the source.
Columns and labels:
[1] = MTT cell viability assay, NHDF; assay type: cell-based, human; settings: human, normal human dermal fibroblasts (NHDF), single concentration of 10 µM, 72 h, mean ± SD; read-out: cell viability percentage in relation with control, NHDF
Method: (§1) Caco-2, MCF-7, PC-3, and NHDF cell lines were obtained from the American Type Culture Collection (ATCC) and maintained in 75 cm^2 culture flasks in a humidified atmosphere at 37 °C with 5% carbon dioxide using a LEEC Culture Safe Precision CO2 Incubator. The culture media was renewed every two to three days. The NHDF cell line was cultured in Roswell Park Memorial Institute (RPMI) medium supplemented with 10% of inactivated fetal bovine serum (FBS), 2 mM of L-glutamine, 10 mM of 4-(2-hydroxyethyl)-1-piperazineethanesulfonic acid (HEPES), 1 mM of sodium pyruvate, and 1% of antibiotic/antimycotic mixture (Ab; 10,000 U/mL of penicillin G, […] of streptomycin, and 25 µg/mL of amphotericin B). The PC-3 cell line was also cultured in RPMI 1640 medium supplemented with 10% inactivated FBS and 1% of an antibiotic mixture (Sp; 10,000 U/mL of penicillin G and […] of streptomycin). The Caco-2 and MCF-7 cell lines were grown in Dulbecco’s Modified Eagle Medium (DMEM). Caco-2 was supplemented with 20% of inactivated FBS and 1% of Sp. On the other hand, the MCF-7 medium was complemented with 10% of inactivated FBS and 1% of Ab. All manipulations were performed in a Labculture Class II A2 Biological Safety Cabinet.
(§2) After the near confluency of cultures, cells were detached with a solution of 0.125 g/L trypsin and 0.02 g/L ethylenediaminetetracetic acid (EDTA), counted using the trypan blue method, resuspended, and seeded in 96-well culture plates (100 µL, 2 × 10^4 cells/mL). Following 48 h of adherence, cells were treated with the test solutions and incubated for 72 h. This incubation, as well as the solution manipulations, were performed in an environment protected from light. After the incubation, the medium was replaced with a fresh incomplete culture medium (without FBS and Ab or Sp) and MTT solution (5 mg/mL in phosphate buffer saline (PBS)). After additional incubation for 4 h, the MTT medium was removed, formazan crystals were dissolved in DMSO, and the optical density of each well was measured at 570 nm using a microplate spectrophotometer Bio-Rad xMark. Untreated cells were used as a negative control and 5-FU as the positive control. The results were expressed as the relative cell proliferation relative to the negative control cells. […] To determine the IC50 values, Caco-2, MCF-7, PC-3, and NHDF cells were exposed to increasing concentrations between 0.001 and 100 μM.

[2] = MTT cell viability assay, Caco-2; assay type: cell-based, human; settings: human, 72 h, read-out: SI Caco-2 (selectivity index, cancer versus NHDF)
Method: as §1, §2

[3] = tested on: Caco-2 colorectal adenocarcinoma cell line; test: MTT cell viability assay, Caco-2; assay type: cell-based, human; settings: for IC50: 72 h of incubation, MTT, protected from light; for viability at 10 µM: read-out: cell viability percentage in relation with control, Caco-2; for SI Caco-2 (selectivity index, cancer versus NHDF): Caco-2 versus NHDF
Method: as §1, §2

[4] = tested on: MCF-7 breast adenocarcinoma cell line; test: MTT cell viability assay, MCF-7; assay type: cell-based, human; settings: for viability at 10 µM: Homo sapiens, read-out: cell viability percentage in relation with control, MCF-7
Method: as §1, §2

[5] = tested on: PC-3 prostate adenocarcinoma cell line; test: MTT cell viability assay, PC-3; assay type: cell-based, human
Method: as §1, §2

[6] = tested on: normal human dermal fibroblasts (NHDF); test: MTT cell viability assay, NHDF; assay type: cell-based; settings: for IC50: 72 h of incubation, MTT, protected from light; for cell viability percentage in relation with control, NHDF: single concentration of 10 µM, mean ± SD
Method: as §1, §2

[7] = Homo sapiens, Caco-2, 72 h, single concentration of 10 µM, 72 h, mean ± SD
[8] = MCF7, 72 h, single concentration of 10 µM, 72 h, mean ± SD
[9] = Homo sapiens, 72 h, single concentration of 10 µM, 72 h, mean ± SD; read-out: cell viability percentage in relation with control, PC-3
[10] = single concentration of 10 µM, 72 h, mean ± SD
[11] = Homo sapiens, Caco-2, single concentration of 10 µM, 72 h, mean ± SD
[12] = MCF7, single concentration of 10 µM, 72 h, mean ± SD
[13] = Homo sapiens; single concentration of 10 µM, 72 h, mean ± SD; read-out: cell viability percentage in relation with control, PC-3

| Structure (SMILES) | IC50 ([3]; Homo sapiens, Caco-2, 72 h) [nM] | melting point | viability at 72 h, 10 µM [1] [%] | selectivity ratio at 72 h ([2]; Caco-2, Caco-2 versus NHDF) | viability at 10 µM [3, 7] [%] | viability at 10 µM [4, 8] [%] | viability at 10 µM [5, 9] [%] | IC50 ([6]; Homo sapiens, NHDF, 72 h) [nM] | SI Caco-2 (selectivity index, cancer versus NHDF) ([3]; 72 h) | further results |
| --- | --- | --- | --- | --- | --- | --- | --- | --- | --- | --- |
| CCN1C(=Cc2sc3ccccc3[n+]2CC)Sc2ccccc21 [Dye 6] | 300 |  | 3.37 ± 0.65 | 1.6 | 3.52 ± 0.3 | 1.08 ± 0.23 | 2.06 ± 0.89 | 490 |  |  |
| CCN1C(=Cc2sc3ccccc3[n+]2CC)Sc2ccccc21.[O-][Cl+3]([O-])([O-])[O-] [Dye 7, 3-Ethyl-2-((3-ethylbenzo[d]thiazol-2(3H)-ylidene)methyl)benzo[d]thiazol-3-ium perchlorate] |  | 296 to 297 °C | 3.34 ± 0.14 |  |  |  |  |  |  | IC50 ([6]; Homo sapiens, NHDF): 830 nM; selectivity ratio at 72 h ([2]; Caco-2 versus NHDF): 3; viability at 10 µM ([3]; Homo sapiens, Caco-2, 72 h): 3.11 ± 0.94%; IC50 ([3]; Homo sapiens, Caco-2): 280 nM; viability at 10 µM ([4]; MCF7, 72 h): 0.96 ± 0.61%; viability at 10 µM ([5]; Homo sapiens, 72 h, read-out: cell viability percentage in relation with control, PC-3): 1.19 ± 0.29% |
| CN1/C(=C/c2sc3ccccc3[n+]2C)Sc2ccccc21 [Dye 2, Methyl-2-((3-methylbenzo[d]thiazol-2(3H)-ylidene)methyl)benzo[d]thiazol-3-ium chloride] | 650 |  | 5.64 ± 1.15 |  | 2.18 ± 0.64 | 0.85 ± 0.34 | 1.29 ± 0.24 | 770 | 1.2 |  |
| CN1C(=Cc2sc3ccccc3[n+]2C)Sc2ccccc21.Cc1ccc(S(=O)(=O)[O-])cc1 [Dye 5, 3-Methyl-2-((3-methylbenzo[d]thiazol-2(3H)-ylidene)methyl)benzo[d]thiazol-3-ium 4-methylbenzenesulfonate] |  |  |  |  |  |  |  |  | 2.4 | IC50 ([6]; listed as 5): 680 nM; cell viability percentage in relation with control, NHDF ([6]; 72 h): 4.42 ± 0.55%; IC50 ([3]; listed as 5): 280 nM; cell viability percentage in relation with control, Caco-2 [3, 10]: 2.55 ± 0.58%; cell viability percentage in relation with control, MCF-7 [4, 10]: 1.55 ± 0.53%; cell viability percentage in relation with control, PC-3 [5, 10]: 1 ± 0.18% |
| CCN1C(=CC=Cc2[se]c3ccccc3[n+]2CC)[Se]c2ccccc21.[I-] [Dye 16, 3-Ethyl-2-(3-(3-ethylbenzo[d][1,3]selenazol-2(3H)-ylidene)prop-1-en-1-yl)benzo[d][1,3]selenazol-3-ium iodide] |  | 272 to 273 °C (dec.) | 4.53 ± 0.39 |  |  |  |  |  |  | IC50 ([6]; Homo sapiens, NHDF): 480 nM; selectivity ratio at 72 h ([2]; Caco-2 versus NHDF): 6.5; IC50 ([3]; Homo sapiens, Caco-2): 70 nM; viability at 10 µM [3, 11]: 1.25 ± 0.39%; viability at 10 µM [4, 12]: 1.39 ± 0.68%; viability at 10 µM [5, 13]: 3.92 ± 0.75% |
| CCCCCCCCCCN1C(=CC=C2CCCC(C=Cc3[se]c4ccccc4[n+]3CCCCCCCCCC)=C2Cl)[Se]c2ccccc21.[I-] [Dye 18, 2-(2-(2-Chloro-3-(2-(3-decylbenzo[d][1,3]selenazol-2(3H)-ylidene)ethylidene)cyclohex-1-en-1-yl)vinyl)-3-decylbenzo[d][1,3]selenazol-3-ium iodide] |  | 221 to 224 °C | 36.6 ± 1.75 |  |  |  |  |  |  | viability at 10 µM [3, 11]: 47.2 ± 5.29%; viability at 10 µM [4, 12]: 51.8 ± 10.1%; viability at 10 µM [5, 13]: 28.4 ± 7.73% |
| CC1(C)C(=CC=C2CCCC(C=CC3=[N+](CCCCS(=O)(=O)O)c4ccccc4C3(C)C)=C2Cl)N(CCCCS(=O)(=O)O)c2ccccc21 [Dye 19, 2-(2-(2-Chloro-3-(2-(3,3-dimethyl-1-(4-sulfobutyl)indolin-2-ylidene)ethylidene)cyclohex-1-en-1-yl)vinyl)-3,3-dimethyl-1-(4-sulfobutyl)-3H-indol-1-ium iodide] |  |  | 42 ± 1.76 |  | 57.4 ± 1.75 | 94.4 ± 7.99 | 51.1 ± 5.32 |  |  |  |
| CN1C(=Cc2sc3ccccc3[n+]2C)Sc2ccccc21.[Br-] [Dye 3, 3-Methyl-2-((3-methylbenzo[d]thiazol-2(3H)-ylidene)methyl)benzo[d]thiazol-3-ium bromide] | 520 |  |  |  | 1.68 ± 0.53 |  | 1.27 ± 0.31 | 410 | 0.8 | cell viability percentage in relation with control, NHDF ([6]; 72 h): 3.93 ± 0.75%; cell viability percentage in relation with control, MCF-7 [4, 10]: 0.52 ± 0.39% |
| CN1C(=Cc2sc3ccccc3[n+]2C)Sc2ccccc21.[I-] [Dye 4, 3-Methyl-2-((3-methylbenzo[d]thiazol-2(3H)-ylidene)methyl)benzo[d]thiazol-3-ium iodide] |  |  |  |  |  |  |  |  | 1.8 | IC50 ([6]; listed as 4): 730 nM; cell viability percentage in relation with control, NHDF ([6]; 72 h): 3.82 ± 0.21%; IC50 ([3]; listed as 4): 400 nM; cell viability percentage in relation with control, Caco-2 [3, 10]: 3.01 ± 0.74%; cell viability percentage in relation with control, MCF-7 [4, 10]: 2.26 ± 0.82%; cell viability percentage in relation with control, PC-3 [5, 10]: 1.18 ± 0.36% |

Further lines, with some results ahead:

| IC50 ([3]; Homo sapiens, Caco-2, 72 h) [nM] | melting point | Structure (SMILES) | viability at 72 h, 10 µM [1] [%] | selectivity ratio at 72 h ([2]; Caco-2, Caco-2 versus NHDF) | viability at 10 µM [3, 7] [%] | viability at 10 µM [4, 8] [%] | viability at 10 µM [5, 9] [%] | IC50 ([6]; Homo sapiens, NHDF, 72 h) [nM] | SI Caco-2 (selectivity index, cancer versus NHDF) ([3]; 72 h) | further results |
| --- | --- | --- | --- | --- | --- | --- | --- | --- | --- | --- |
| 1000 | 226 to 227 °C | COC(=O)CN1C(=Cc2sc3ccccc3[n+]2CC(=O)OC)Sc2ccccc21.[Br-] [Dye 9, 3-(2-Methoxy-2-oxoethyl)-2-((3-(2-methoxy-2-oxoethyl)benzo[d]thiazol-2(3H)-ylidene)methyl)benzo[d]thiazol-3-ium bromide] | 47.9 ± 3.64 | 0.7 | 47 ± 6.81 | 49 ± 13.9 | 46.8 ± 14 |  |  |  |
| 950 | 249 to 250 °C | C(=C1Sc2ccccc2N1Cc1ccccc1)c1sc2ccccc2[n+]1Cc1ccccc1.[I-] [Dye 8, 3-Benzyl-2-((3-benzylbenzo[d]thiazol-2(3H)-ylidene)methyl)benzo[d]thiazol-3-ium iodide] | 2.04 ± 0.39 | 1 | 0.32 ± 0.03 | 1.47 ± 1.13 | 1.16 ± 0.49 | 930 |  |  |
| 1240 | 164 to 166 °C | CCCCCN1C(=Cc2sc3ccccc3[n+]2CCCCC)Sc2ccccc21.[I-] [Dye 10, 3-Pentyl-2-((3-pentylbenzo[d]thiazol-2(3H)-ylidene)methyl)benzo[d]thiazol-3-ium iodide] | 0.1 ± 0.36 | 0.6 | 1.02 ± 0.42 | 0.87 ± 2.53 | 0.97 ± 0.26 | 670 | 0.7 | IC50 [3]: 1000 nM |
| 390 |  | CCN1C(=CC=Cc2oc3ccccc3[n+]2CC)Oc2ccccc21 [Dye 15, 3-Ethyl-2-(3-(3-ethylbenzo[d]oxazol-2(3H)-ylidene)prop-1-en-1-yl)benzo[d]oxazol-3-ium iodide] | 3.72 ± 0.23 | 10.4 | 8.58 ± 0.92 | 6.03 ± 0.77 | 13.3 ± 1.9 | 4020 |  |  |
|  | 97 to 98 °C | c1ccc2sc(Cc3nc4ccccc4s3)nc2c1 [bisbenzothiazole 1, bis(benzo[d]thiazol-2-yl)methane] | 31 ± 0.57 |  | 59.6 ± 5.45 | 55.7 ± 4.97 | 53.2 ± 9.68 |  |  |  |
